Numbers after ± are expanded uncertainties.
Tests used:
[1] = refractive index (Na D-line) (dimensionless); wn = mass fraction of the nth substance listed; conditions: 81.5 kPa, Liquid, Standard Abbe refractometry
[2] = 298.2 K; 101.33 kPa; Liquid; Vibrating tube method
[3] = refractive index (Na D-line) (dimensionless); conditions: 298.2 K; 101.33 kPa; Liquid; Standard Abbe refractometry

A refractive index ([1]; 293.2 K, w2 = 0.0006) of 1.4915 ± 0.0014, a refractive index ([1]; 293.2 K, w2 = 0.9998) of 1.3335 ± 0.0014 and a refractive index ([1]; 298.2 K, w2 = 0.0009) of 1.49001 ± 0.0014 were found for CC(C)c1ccccc1 [isopropylbenzene] + O in this work. It also gave a refractive index ([1]; 298.2 K, w2 = 0.9996) of 1.333 ± 0.0014, a refractive index ([1]; 308.2 K, w2 = 0.0011) of 1.4859 ± 0.0014 and a refractive index ([1]; 308.2 K, w2 = 0.9994) of 1.33195 ± 0.0014.

A mass density [2] of 857.54 ± 1.7 kg/m3 and a refractive index [3] of 1.49005 ± 0.0014 were found for CC(C)c1ccccc1 [isopropylbenzene] in this work.

A refractive index [3] of 1.3325 ± 0.0014 was found for O [water] in this work.

Reference: the NIST ThermoML archive (doi:10.1021/acs.jced.7b00393)
